Reference: patent publication US20190374505A1, “METHODS AND COMPOSITIONS FOR THE TREATMENT OF NON-ALCOHOLIC STEATOHEPATITIS” (Vivus, Inc., priority 2016, published 2019)
Several values for one entry are separate records, joined by “and”; a condition that tells them apart may be missing. Identical values can stand only once.

Assays:
Format in all cases: in vivo, mouse
[1] = test system: liver mRNA of TNF-α, TIMP-1, Alpha-SMA, MMP-9, collagen type 1, MCP-1; assay: STAM model mice: liver gene expression analysis (real-time PCR, normalized to 36B4); conditions: vehicle average = 1.0, mean ± SD
Text: (§1) Having observed the improvements in markers that correlate with liver disease in patients treated with PHEN/TPM, animal studies in the STAM model for NAFLD/NASH were preformed to look more specifically at liver morphology and function following treatment with PHEN/TPM. The STAM model was selected because it allows a specific examination of the effects of drug treatment, in this example PHEN/TPM, on non-alcoholic steatohepatitis. The STAM model is a non-genetic animal model of human NASH with features of diabetic background, increased. NAFLD activity score (NAS), perivenular and pericellular fibrosis in Zone 3, and a high incidence of hepatocellular carcinoma (Fujii M. et al., Med. Mel. Morphol., 2013; 46: 141). The model is induced by a combination of chemical and dietary interventions in the mice. In this example, NASH was induced in 30 male mice by a single subcutaneous injection of 200 μg streptozotocin (STZ, Sigma-Aldrich, USA) solution 2 days after birth and feeding with a high fat diet (HFD, 57 kcal % fat, cat#: HFD32, CLEA Japan, Japan) after 4 weeks of age. The mice were treated with either vehicle, PHEN/TPM or Telmisartan.
(§2) Phentermine (PHEN) and Topiramate (TPM) were weighed and dissolved in distilled water and 0.5% methylcellulose, respectively. Telmisartan (MICARDIS®) was purchased from Boehringer Ingelheim GmbH (Germany) and suspended in milli-Q water. Vehicle, PHEN and TPM were orally administered in a volume of 5 mL/kg. Telmisartan was orally administered in a volume of 10 mL/kg. PHEN was administered at a dose of 15 mg/kg once daily. TPM was administered at a dose of 100 mg/kg once daily. Telmisartan was administered at a dose of 5 mg/kg once daily.
Total RNA was extracted from liver samples using RNAiso (Takara Bio, Japan) and SV total RNA isolation kit (Promega, USA) according to the manufacturer's instructions. One/1 g of RNA was reverse-transcribed using a reaction mixture containing 4.4 mM MgCb (F. Hoffmann-La Roche, Switzerland), 40 U RNase inhibitor (Toyobo, Japan), 0.5 mM dNTP (Promega), 6.28 µM random hexamer (Promega), 5× first strand buffer (Promega), 10 mM dithiothreitol (Invitrogen, USA) and 200 U MMLV-RT (Invitrogen) in a final volume of 20 IIL. The reaction was carried out for 1 hour at 37° C., followed by 5 minutes at 99° C. Real-time PCR was performed using real-time PCR DICE and SYBR premix Tag (Takara Bio). To calculate the relative mRNA expression level, the expression of each gene was normalized to that of reference gene 36B4 (gene symbol: RplpO). To express data as fold-change relative to the Vehicle-control group, the data were standardized so that average values of the Vehicle group become 1.0.
(§3) The three treatment groups were as follows: Group 1: Vehicle: 10 NASH mice were orally administered vehicle [distilled water and 0.5% methylcellulose in a volume of 5 mL./kg, respectively] once daily from 5 to 11 weeks of age. Group 2: PHEN/WM. 10 NASH mice were orally administered distilled water supplemented with PHEN at a dose of 15 mg/kg, and 0.5% methylcellulose supplemented with TPM at a dose of 100 mg/kg once daily from 5 to 11 weeks of age. Group 3: Telmisartan. 10 NASH mice were orally administered pure water supplemented with Telmisartan at a dose of 5 mg/kg once daily from 5 to 11 weeks of age.
The values in Table 7 were calculated by dividing Target by 36B4 for each animal. An average was calculated in the vehicle group. The initial calculations of Target/36B4 was divided by the vehicle average so the vehicle average becomes 1.0. This second Target/36B4 represents a fold-change of Target gene relative to the vehicle average.

STAM model mice (NASH) [2] = assay: STAM model mice: blood biochemistry and liver triglyceride content; conditions: day of sacrifice, mean ± SD
Text: as §1
as §2, with “TPM was administered at a dose of 100 mg/kg once daily. Telmisartan was administered at a dose of 5 mg/kg once daily.” left out
Measurement of blood biochemistry. Non-fasting blood glucose was measured in whole blood using LIFE CHECK (EIDrA, Japan). […] The plasma ALT (alanine aminotransferase) and AST (aspartate aminotransferase) levels were measured by FUJI DRI CHEM 7000 (FujiFilm, Japan) Measurement of liver triglyceride content Liver total lipid-extracts were obtained by Folch's method (Folch J. el al., J. Bioi. Chern. 1957; 226: 497). […] Liver triglyceride levels were measured by Triglyceride E-test (Wako Pure Chemical Industries, Japan). […]

STAM model mice (NASH) [3] = assay: STAM model mice: liver histopathology (HE/NAS, Sirius red, Oil red, F4/80)
Text: as §1, §2
Histopathology analysis. For HE staining, sections were cut from paraffin blocks of liver tissue prefixed in Bouin's solution and stained with Lillie-Mayers Hematoxylin (Muto Pure Chemicals, japan) and eosin solution (Wako Pure Chemical industries). NAS was calculated according to the criteria of Kleiner (Kleiner D E. et al., Hepatology, 2005; 41: 1313). To visualize collagen deposition, Bouin's fixed liver sections were stained using picro-Sirius red solution (Waldeck, Gelman)). To visualize macro- and microvesicular fat, sections were cut from frozen liver tissues embedded in Tissue-Tek O.C.T. compound (Sakura Finetek Japan, Japan), and stained with Oil Red 0 (SigmaAldrich). For immunohistochemistry, sections were cut from frozen liver tissues embedded in Tissue-Tek O.C.T. compound and fixed in acetone. Endogenous peroxidase activity was blocked using 0.03% H2O2 for 5 minutes, followed by incubation with Block Ace (Dainippon Sumitomo Pharma, Japan) for 10 minutes. The sections were incubated with a 200-fold dilution of anti-F4/80 antibody (BMA Biomedicals, Switzerland) 1 hour at room temperature. After incubation with secondary antibody (HRP-Goat anti-rat antibody, Invitrogen, USA), enzyme-substrate reactions were performed using 3, 3′-diaminobenzidine/H202 solution (Nichirei, Japan). For quantitative analyses of fibrosis, inflammation and fat deposition areas, bright field images of Sirius red-stained, F4/80-immunostained and oil red-stained sections were captured around the central vein using a digital camera (DFC280; Leica, Germany) at 200-fold magnification, and the positive areas in 5 fields/section were measured using ImageJ software (National Institute of Health, USA).
as §3, with “10 NASH mice were orally administered pure water supplemented with Telmisartan at a dose of 5 mg/kg once daily from 5 to 11 weeks of age.” left out

STAM model mice (NASH) [4] = assay: STAM model mice: viability, body weight, food consumption, liver weight
Text: as §1, §2
C57BL16 mice (15-day-pregnant female) were obtained from Japan SLC (Japan) and were housed in accordance with the Japanese Pharmacological Society Guidelines for Animal Use. The animals were maintained in a SPF facility under controlled conditions of temperature (23±2° C.), humidity (45±10%), lighting (12-hour artificial light and dark cycles; light from 8:00 to 20:00) and air exchange. A high pressure was maintained in the experimental room to prevent contamination of the facility. The animals were housed in TPX cages (CLEA Japan) with a maximum of 4 mice per cage. Sterilized Paper-Clean (Japan SLC) was used for bedding and replaced once a week.
Sterilized solid HFD was provided ad libitum, being placed in a metal lid on the top of the cage. Pure water was provided ad libitum from a water bottle equipped with a rubber stopper and a sipper tube. Water bottles were replaced once a week, cleaned and sterilized in an autoclave and reused. Mice were identified by numbers engraved on earrings. Each cage was labeled with a specific identification code.
as §3, with “10 NASH mice were orally administered pure water supplemented with Telmisartan at a dose of 5 mg/kg once daily from 5 to 11 weeks of age.” left out
The viability, clinical signs and behavior were monitored daily. […]
The body weight of each mouse was recorded daily and food consumption was recorded 3 times weekly during the treatment period. […]

[5] = day of sacrifice, mean ± SD, PHEN 15 + TPM 100 mg/kg (n=6), Telmisartan 5 mg/kg (n=8)

CCCc1nc2c(C)cc(-c3nc4ccccc4n3C)cc2n1Cc1ccc(-c2ccccc2C(=O)O)cc1 [Telmisartan]
Alpha-SMA/36B4 mRNA expression, fold change relative to Vehicle group [1]: 0.54 and 0.54 ± 0.40
Collagen Type 1/36B4 mRNA expression, fold change relative to Vehicle group [1]: 0.80 and 0.80 ± 0.11
MCP-1/36B4 mRNA expression, fold change relative to Vehicle group [1]: 0.44 and 0.44 ± 0.23
MMP-9/36B4 mRNA expression, fold change relative to Vehicle group [1]: 1.21 and 1.21 ± 0.36
TIMP-1/36B4 mRNA expression, fold change relative to Vehicle group [1]: 0.66 and 0.66 ± 0.46
TNF-α/36B4 mRNA expression, fold change relative to Vehicle group [1]: 0.75 and 0.75 ± 0.17
Plasma ALT (STAM model mice (NASH) [2]): 39 U/L and 39 ± 34 U/L
Plasma AST (STAM model mice (NASH) [2]): 229 U/L and 229 ± 176 U/L
Whole blood glucose (STAM model mice (NASH) [2]; non-fasting): 768 mg/dL and 768 ± 199 mg/dL
Fibrosis area (Sirius-red) (STAM model mice (NASH) [3]; mean ± SD): 0.81% and 0.81 ± 0.39%
Inflammation area (F4/80) (STAM model mice (NASH) [3]; mean ± SD): 1.48 ± 0.76%
Number of mice with Steatosis score 0 (STAM model mice (NASH) [3]; score 0 = <5%): 2
Number of mice with Lobular Inflammation score 0 (STAM model mice (NASH) [3]; score 0 = No foci): 2
Number of mice with Steatosis score 1 (STAM model mice (NASH) [3]; score 1 = 5-33%): 6
Number of mice with Lobular Inflammation score 1 (STAM model mice (NASH) [3]; score 1 = <2 foci/200x): 2
Number of mice with Hepatocyte Ballooning score 1 (STAM model mice (NASH) [3]; score 1 = Few balloon cells): 4
Number of mice with Lobular Inflammation score 2 (STAM model mice (NASH) [3]; score 2 = 2-4 foci/200x): 4
Number of mice with Hepatocyte Ballooning score 2 (STAM model mice (NASH) [3]; score 2 = Many cells/prominent ballooning): 4
Mean body weight reduced compared to the Vehicle group (STAM model mice (NASH) [4]; day of sacrifice): 11.4%
Liver-to-body weight ratio (STAM model mice (NASH) [4]; day of sacrifice, mean ± SD): 6.2 ± 1.1%
Body weight (STAM model mice (NASH) [4]; [5]): 18.7 g and 18.7 ± 1.7 g
Liver weight (STAM model mice (NASH) [4]; [5]): 1156 ± 210 mg
Mice found dead before reaching week 11 (STAM model mice (NASH) [4]; treatment period 5 to 11 weeks of age, oral once daily, PHEN 15 mg/kg + TPM 100 mg/kg, Telmisartan 5 mg/kg): Two out of 10
